We go through 15 molecules from patent publication US11597706B2, “Compounds and compositions for treating conditions associated with NLRP activity” (Novartis AG, priority 2016, dated 2023).

T1 sequence (Q96P20 whole entry): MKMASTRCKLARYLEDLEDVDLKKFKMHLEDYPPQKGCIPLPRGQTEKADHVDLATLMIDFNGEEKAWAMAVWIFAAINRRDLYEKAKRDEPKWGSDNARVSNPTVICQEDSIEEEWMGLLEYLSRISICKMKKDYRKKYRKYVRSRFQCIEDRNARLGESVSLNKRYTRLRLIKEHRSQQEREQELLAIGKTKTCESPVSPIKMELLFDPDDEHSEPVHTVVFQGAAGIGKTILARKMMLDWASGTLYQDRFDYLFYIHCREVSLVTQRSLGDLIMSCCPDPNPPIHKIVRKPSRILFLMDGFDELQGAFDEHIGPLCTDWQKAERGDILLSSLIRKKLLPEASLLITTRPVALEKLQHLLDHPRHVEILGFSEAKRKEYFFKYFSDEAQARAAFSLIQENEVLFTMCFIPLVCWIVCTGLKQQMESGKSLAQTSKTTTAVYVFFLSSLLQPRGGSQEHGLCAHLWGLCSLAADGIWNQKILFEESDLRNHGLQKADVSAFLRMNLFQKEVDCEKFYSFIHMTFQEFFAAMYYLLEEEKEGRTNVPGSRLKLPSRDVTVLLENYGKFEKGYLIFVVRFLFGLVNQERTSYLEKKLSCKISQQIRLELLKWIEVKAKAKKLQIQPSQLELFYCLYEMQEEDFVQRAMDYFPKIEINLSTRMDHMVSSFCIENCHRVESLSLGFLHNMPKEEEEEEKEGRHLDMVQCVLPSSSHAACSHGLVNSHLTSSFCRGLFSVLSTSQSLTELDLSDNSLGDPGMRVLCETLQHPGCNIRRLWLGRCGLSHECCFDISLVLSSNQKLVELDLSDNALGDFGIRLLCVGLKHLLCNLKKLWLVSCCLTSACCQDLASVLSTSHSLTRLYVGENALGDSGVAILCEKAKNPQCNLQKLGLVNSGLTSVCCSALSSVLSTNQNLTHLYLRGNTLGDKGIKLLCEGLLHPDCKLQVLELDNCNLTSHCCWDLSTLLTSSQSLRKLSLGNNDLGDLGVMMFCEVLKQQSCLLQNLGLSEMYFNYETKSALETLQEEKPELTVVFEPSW

One assay concerns the target T1, hNLRP3 (THP-1, IL-1β) (Homo sapiens, UniProt Q96P20).
T1 construct: THP-1 cells were purchased from the American Type Culture Collection; host or cells: THP-1 cells, PMA-differentiated, stimulated with gramicidin
The experiment in a line: IL-1β production in PMA-differentiated THP-1 cells stimulated with gramicidin. The conditions noted are these: Table 1, gramicidin 5 μM, IL-1β readout. It counts as cell-based. As for the experimental part: IL-1β Production in PMA-Differentiated THP-1 Cells Stimulated With Gramicidin.
Cell culture-THP-1 cells were purchased from the American Type Culture Collection and sub-cultured according to instructions from the supplier. Prior to experiments, cells were cultured in RPMI 1640 containing 10% heat inactivated FBS, penicillin (100 units/ml) and streptomycin (100 μg/ml), and maintained in log phase prior to experimental setup. Prior to the experiment THP-1 were treated with PMA (Phorbol 12-myristate 13-acetate) (10 μg/ml) for 24 hours. The day of the experiment the media was removed and attaching cells were treated with trypsin for 2 minutes, cells were then collected, washed with PBS (phosphate buffer saline), spin down, resuspended in 2% heat inactivated FBS with RPMI at a concentration of 1×10^6 cells/ml, and 100 μl was plated in a 96 well plate. Cells were incubated with compounds for 1 hours and then stimulated with Gramicidin (5 μM) (Enzo) for 2 hours. Cell free supernatant was collected and the production of IL-1β was evaluated by ELISA. Compounds were dissolved in dimethyl sulfoxide (DMSO) and added to the culture medium to achieve desired concentration (e.g. 100, 30, 10, 3, 1, 0.3 or 0.1 μM). A vehicle only control was run concurrently with each experiment. Final DMSO concentration was 1%.
THP-1 cells were purchased from the American Type Culture Collection and sub-cultured according to instructions from the supplier. Prior to experiments, cells were cultured in complete RPMI 1640 (containing 10% heat inactivated FBS, penicillin (100 units/ml) and streptomycin (100 μg/ml)), and maintained in log phase prior to experimental setup. Prior to the experiment THP-1 were treated with PMA (Phorbol 12-myristate 13-acetate) (20 ng/ml) for 16-18 hours. On the day of the experiment the media was removed and adherent cells were detached with trypsin for 5 minutes. Cells were then harvested, washed with complete RPMI 1640, spun down, resuspended in RPMI 1640 (containing 2% heat inactivated FBS, penicillin (100 units/ml) and streptomycin (100 μg/ml). The cells were plated in a 384-well plate at a density of 50,000 cells/well (final assay volume 50 μl). Compounds were dissolved in dimethyl sulfoxide (DMSO) and added to the culture medium to achieve desired concentration (e.g. 100, 33, 11, 3.7, 1.2, 0.41, 0.14, 0.046, 0.015, 0.0051, 0.0017 μM). Cells were incubated with compounds for 1 hour and then stimulated with gramicidin (5 μM) (Enzo) for 2 hours. Cell free supernatant was collected and the production of IL-1β was evaluated by HTRF (cisbio). A vehicle only control was run concurrently with each experiment. Final DMSO concentration was 0.38%.
For `CC(C)(O)c1cc(F)cc(S(=O)(=O)NC(=O)Nc2c3c(c(F)c4c2CCC4)CCC3)c1` [Compound 114, 3-fluoro-N-(8-fluoro-1,2,3,5,6,7-hexahydros-indacen-4-ylcarbamoyl)-5-(2-hydroxypropan-2-yl)benzenesulfonamide], the IC50 was under 1000 nM.

Molecule `CC(C)c1cc(C#N)cc(C(C)C)c1NC(=O)NS(=O)(=O)c1cc(F)cc(C(C)(C)O)c1` [Compound 126] showed an IC50 of under 1000 nM.

`CC(C)(O)c1cc(C#N)cc(S(=O)(=O)NC(=O)Nc2c3c(c(F)c4c2CCC4)CCC3)c1` [Compound 112, 3-cyano-N-(8-fluoro-1,2,3,5,6,7-hexahydros-indacen-4-ylcarbamoyl)-5-(2-hydroxypropan-2-yl)benzenesulfonamide] yielded an IC50 of under 1000 nM.

`CC(C)c1cccc(C(C)C)c1NC(=O)NS(=O)(=O)c1cc(C#N)cc(C(C)(C)O)c1` [Compound 115, 3-cyano-N-(2,6-diisopropylphenylcarbamoyl)-5-(2-hydroxypropan-2-yl)benzenesulfonamide] showed an IC50 of under 1000 nM.

As to `CC(C)c1cccc(C(C)C)c1NC(=O)NS(=O)(=O)c1cc(Cl)cc(C(C)(C)O)c1` [Compound 120, 3-chloro-N-(2,6-diisopropylphenylcarbamoyl)-5-(2-hydroxypropan-2-yl)benzenesulfonamide], the IC50 is under 1000 nM.

For `CC(C)(O)c1cccc(S(=O)(=O)NC(=O)Nc2c3c(c(F)c4c2CCC4)CCC3)c1` [Compound 111, N-(8-fluoro-1,2,3,5,6,7-hexahydros-indacen-4-ylcarbamoyl)-3-(2-hydroxypropan-2-yl)benzenesulfonamide], the IC50 was under 1000 nM.

Still in this assay, the particulars now being: Table 2, gramicidin 5 μM, IL-1β readout.
Consider `CC(C)c1cc(F)cc(C(C)C)c1NC(=O)NS(=O)(=O)c1ccc(C(C)(C)O)cc1` [Compound 165, N-(4-fluoro-2,6-diisopropylphenylcarbamoyl)-4-(2-hydroxypropan-2-yl)benzenesulfonamide], for which the IC50 is under 1000 nM.

Regarding `CC(C)c1cc(Cl)cc(C(C)C)c1NC(=O)NS(=O)(=O)c1cc(C#N)cc(C(C)(C)O)c1` [Compound 145, N-(4-chloro-2,6-diisopropylphenylcarbamoyl)-3-cyano-5-(2-hydroxypropan-2-yl)benzenesulfonamide], the concentration for half-maximal inhibition (IC50) was under 1000 nM.

`CC(C)c1ccc(F)c(C(C)C)c1NC(=O)NS(=O)(=O)c1cc(F)cc(C(C)(C)O)c1` [Compound 144, 3-fluoro-N-(3-fluoro-2,6-diisopropylphenylcarbamoyl)-5-(2-hydroxypropan-2-yl)benzenesulfonamide] registered an IC50 of under 1000 nM.

Consider `CC(C)c1ccc(F)c(C(C)C)c1NC(=O)NS(=O)(=O)c1cccc(C(C)(C)O)c1` [Compound 141, N-(3-fluoro-2,6-diisopropylphenylcarbamoyl)-3-(2-hydroxypropan-2-yl)benzenesulfonamide], for which the IC50 was under 1000 nM.

Turning to `CC(C)(O)c1cc(-c2ccncc2)cc(S(=O)(=O)NC(=O)Nc2c3c(cc4c2CCC4)CCC3)c1` [Compound 149, N-(1,2,3,5,6,7-hexahydro-sindacen-4-ylcarbamoyl)-3-(2-hydroxypropan-2-yl)-5-(pyridin-4-yl)benzenesulfonamide], the IC50 fell in the range of 1000 to 5000 nM.

For `CC(C)c1cc(Cl)cc(C(C)C)c1NC(=O)NS(=O)(=O)c1cc(Cl)cc(C(C)(C)O)c1` [Compound 154, 3-chloro-N-(4-chloro-2,6-diisopropylphenylcarbamoyl)-5-(2-hydroxypropan-2-yl)benzenesulfonamide], the half-maximal inhibitory concentration (IC50) is 1000 to 5000 nM.

As to `CC(C)c1ccc(F)c(C(C)C)c1NC(=O)NS(=O)(=O)c1ccc(C(C)(C)O)cc1` [Compound 170, N-(3-fluoro-2,6-diisopropylphenylcarbamoyl)-4-(2-hydroxypropan-2-yl)benzenesulfonamide], the IC50 lay in the range of 1000 to 5000 nM.

`COC(=O)c1cc(C(C)C)c(NC(=O)NS(=O)(=O)c2cccc(C(C)(C)O)c2)c(C(C)C)c1` [Compound 158, methyl 4-(3-(3-(2-hydroxypropan-2-yl)phenylsulfonyl)ureido)-3,5-diisopropylbenzoate] showed an IC50 of 5000 to 15000 nM.

`CC(C)c1ccc(F)c(C(C)C)c1NC(=O)NS(=O)(=O)c1cc(-c2ccncc2)cc(C(C)(C)O)c1` [Compound 159, N-(3-fluoro-2,6-diisopropylphenylcarbamoyl)-3-(2-hydroxypropan-2-yl)-5-(pyridin-4-yl)benzenesulfonamide] had an IC50 of 5000 to 15000 nM.

The term IC50 denotes the midpoint of a concentration-inhibition curve. Read a low IC50 as inhibition by little substance.
